Assay results: US8592432B2, “Compounds and compositions as protein kinase inhibitors” (priority 2008, dated 2013)

Molecular target: ALK (Homo sapiens (Human), UniProt Q9UM73)
Experiment: ALK IC50 (Tables 1-4)
Format: biochemical
Experimental: Assays are incubated for 10 min at ambient temperature. […] Following washing (0.5% H3PO4), plates are counted in a liquid scintillation counter. IC50 values are calculated by linear regression analysis of the percentage inhibition.
Compounds of the present invention may be assessed for their ability to inhibit ALK using assays described below, as well as other assays known in the art.

Chain of ALK (Q9UM73 1116-1392): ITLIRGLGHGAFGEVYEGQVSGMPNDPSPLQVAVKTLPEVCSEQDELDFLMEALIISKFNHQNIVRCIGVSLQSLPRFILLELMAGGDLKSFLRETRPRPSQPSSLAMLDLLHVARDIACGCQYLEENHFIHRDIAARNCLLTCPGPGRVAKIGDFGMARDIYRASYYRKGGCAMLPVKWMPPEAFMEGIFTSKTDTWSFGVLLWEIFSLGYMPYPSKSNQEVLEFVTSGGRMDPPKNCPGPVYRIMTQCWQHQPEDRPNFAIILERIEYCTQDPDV

IC50: 20 nM
SMILES: Cc1cc(Nc2nc(Nc3ccccc3S(=O)(=O)C(C)C)c3c(C)n[nH]c3n2)c(OC(C)C)cc1C1CCN(C)CC1 [Compound 34, N6-(2-isopropoxy-5-methyl-4-(1-methylpiperidin-4-yl)phenyl)-N4-(2-(isoproplsulfonyl)phenyl)-3-methyl-1H-pyrazolo[3,4-d]pyrimidine-4,6-diamine]
